Paper PMC9435431, “Novel chemical entities inhibiting Mycobacterium tuberculosis growth identified by phenotypic high-throughput screening” (Scientific Reports, 2022)
≈ marks a conversion by molar mass, not a printed value. Counter-ions that a name gives are not always drawn. Like-named read-outs stand apart in the source and are kept apart here.

Test system: wild-type M. tuberculosis
Experiment: microbe, parasite or virus in culture
Format: cell-based, Mycobacterium tuberculosis
Conditions: for IC90 / MIC: Mycobacterium tuberculosis; for MIC: read-out: MIC

`Cc1nc(-c2ccccn2)nc(NCCNc2ccc(C(F)(F)F)cn2)c1Cl` [APDP-2] showed an IC90 of 33 µM.

Work on `Cc1nc(-c2ccccn2)nc(NCc2ccccc2)c1Cl` [APDP-3] yielded an IC90 of 6.3 µM.

With `CC1C(CNC(=O)Nc2ccccc2)CC2CC1C2(C)C` (centres unmarked) [HBU-2] the IC90 was 4.9 µM.

`CC(=O)c1ccc(NC(=O)NC(C)C23CC4CC(CC(C4)C2)C3)cc1` (centres unmarked) [HBU-3] showed an IC90 of 29 µM.

For `O=C(NCCc1ccc(Br)cc1)NC12CC3CC(CC(C3)C1)C2` [HBU-4], the IC90 was 12 µM.

`CC(NC(=O)Nc1nc(-c2ccc(Cl)cc2)cs1)C1CC2C=CC1C2` (centres unmarked) [HBU-5] gave an IC90 of 13 µM.

With `CCC1(N2CCC(c3ccc(C(C)(C)C)cc3)CC2)CCCCC1` [Molecule 4PP-2, 4-(4-tert-Butyl-phenyl)-1-(1-ethyl-cyclohexyl)-piperidine] the MIC (120 h) was 2 ± 0.5 µM (≈ 0.655 µg/mL) and the MIC was 2 µM (≈ 0.655 µg/mL).

For `CC(C)(C)c1ccc(C2CCN(CC3CCCCC3)CC2)cc1` [Molecule 4PP-3, 4-(4-t-Butylphenyl)-1-(cyclohexylmethyl)piperidine; 2,2,2-trifluoroacetic acid], the MIC (120 h) was 6.8 ± 0.9 µM (≈ 2.13 µg/mL) and the MIC was 6.8 µM (≈ 2.13 µg/mL).

`c1ccc(C2CCN(CC3CCCCC3)CC2)cc1` [Molecule 4PP-4, 1-Cyclohexylmethyl-4-phenyl-piperidine] was tested, and the MIC (120 h) was 21 ± 9 µM (≈ 5.41 µg/mL) and the MIC was 21 µM (≈ 5.41 µg/mL).

In the case of `CC(C)(C)c1ccc(C2CCN(S(=O)(=O)C3CCCCC3)CC2)cc1` [Molecule 4PP-5, 4-(4-(t-Butyl)phenyl)-1-(cyclohexylsulfonyl)piperidine], the “anti-tubercular activity (in words)” value is reported as “lost whole-cell activity” and the MIC (120 h) is reported as > 20 µM.

For `CC(C)(C)c1ccc(C2CCN(C(=O)C3CCCCC3)CC2)cc1` [Molecule 4PP-6, (4-(4-(t-Butyl)phenyl)piperidin-1-yl)(cyclohexyl)methanone], the “anti-tubercular activity (in words)” value was “lost whole-cell activity” and the MIC (120 h) was > 20 µM.

With `CC(C)(C)NC(=O)N1CCC(c2ccc(C(C)(C)C)cc2)CC1` [Molecule 4PP-7, N-(t-Butyl)-4-(4-(tert-butyl)phenyl)piperidine-1-carboxamide] the “anti-tubercular activity (in words)” value was “loss of activity” and the MIC (120 h) was > 20 µM.

With `CC(C)(C)c1ccc(C2CCN(C(=O)N3CCCCC3)CC2)cc1` [Molecule 4PP-8, (4-(4-(t-Butyl)phenyl)piperidin-1-yl)(piperidin-1-yl)methanone] the “anti-tubercular activity (in words)” value was “loss of activity” and the MIC (120 h) was > 20 µM.

For `O=S(=O)(C1CCCCC1)N1CCC(c2ccccc2)CC1` [Molecule 4PP-9, 1-(Cyclohexylsulfonyl)-4-phenylpiperidine], the “anti-tubercular activity (in words)” value was “lost activity” and the MIC (120 h) was > 20 µM.

In the case of `O=C(C1CCCCC1)N1CCC(c2ccccc2)CC1` [Molecule 4PP-10, Cyclohexyl(4-phenylpiperidin-1-yl) methanone], the “anti-tubercular activity (in words)” value is reported as “lost activity” and the MIC (120 h) is reported as > 20 µM.

For `CC(C)(C)NC(=O)N1CCC(c2ccccc2)CC1` [Molecule 4PP-11, N-(tert-butyl)-4-phenylpiperidine-1-carboxamide], the “anti-tubercular activity (in words)” value was “lost activity” and the MIC (120 h) was > 20 µM.

In the case of `O=C(N1CCCCC1)N1CCC(c2ccccc2)CC1` [Molecule 4PP-12, (4-Phenylpiperidin-1-yl)(piperidin-1-yl)methanone], the “anti-tubercular activity (in words)” value is reported as “lost activity” and the MIC (120 h) is reported as > 20 µM.

For `O=C(NC1CCCCC1)N1CCC(c2ccccc2)CC1` [Molecule 4PP-13, N-cyclohexyl-4-phenylpiperidine-1-carboxamide], the “anti-tubercular activity (in words)” value was “did not furnish activity” and the MIC (120 h) was > 20 µM.

In the case of `CC(C)(C)CC(=O)N1CCC(c2ccccc2)CC1` [Molecule 4PP-14, 3,3-Dimethyl-1-(4-phenylpiperidin-1-yl)butan-1-one], the “anti-tubercular activity (in words)” value is reported as “did not furnish activity” and the MIC (120 h) is reported as > 20 µM.

Work on `CC(C)(C)c1ccc(C2CCN(C3CCCCC3)CC2)cc1` [Molecule 4PP-16, 4-(4-t-Butyl-phenyl)-1-cyclohexyl-piperidine, hydrochloride] yielded an MIC (120 h) of 2.7 ± 0.8 µM and an MIC of 2.7 µM.

In the case of `CN(C)C1CCC(N2CCC(c3ccc(C(C)(C)C)cc3)CC2)CC1` (centres unmarked) [Molecule 4PP-17, 4-(4-(4-(t-Butyl)phenyl)piperidin-1-yl)-N,N-dimethylcyclohexan-1-amine], the “anti-tubercular activity (in words)” value is reported as “detrimental to the activity” and the MIC (120 h) is reported as > 20 µM.

With `COC(=O)C1CCC(N2CCC(c3ccc(C(C)(C)C)cc3)CC2)CC1` (centres unmarked) [Molecule 4PP-18, Methyl 4-(4-(4-(tert-butyl)phenyl)piperidin-1-yl)cyclohexane-1-carboxylate] the “anti-tubercular activity (in words)” value was “loss in activity” and the MIC (120 h) was > 20 µM.

`CC(C)(C)c1ccc(C2CCN(C3CCC(C(=O)O)CC3)CC2)cc1` (centres unmarked) [Molecule 4PP-19, 4-(4-(4-(tert-Butyl)phenyl)piperidin-1-yl)cyclohexane-1-carboxylic acid] was tested, and the “anti-tubercular activity (in words)” value was “loss in activity” and the MIC (120 h) was > 20 µM.

With `CC(C)(C)c1ccc(C2CCN(C3CCC(=O)CC3)CC2)cc1` [Molecule 4PP-20, 4-[4-(4-t-Butyl-phenyl)-piperidin-1-yl]-cyclohexanone] the “anti-tubercular activity (in words)” value was “loss in activity” and the MIC (120 h) was > 20 µM.

For `CN(C)C1CCC(N2CCC(c3ccccc3)CC2)CC1` (centres unmarked) [Molecule 4PP-21, N,N-dimethyl-4-(4-phenylpiperidin-1-yl)cyclohexan-1-amine], the “anti-tubercular activity (in words)” value was “loss of activity” and the MIC (120 h) was > 20 µM.

For `COC(=O)C1CCC(N2CCC(c3ccccc3)CC2)CC1` (centres unmarked) [Molecule 4PP-22, Methyl 4-(4-phenylpiperidin-1-yl)cyclohexane-1-carboxylate], the “anti-tubercular activity (in words)” value was “loss of activity” and the MIC (120 h) was > 20 µM.

With `OC1CCC(N2CCC(c3ccccc3)CC2)CC1` (centres unmarked) [Molecule 4PP-23, 4-(4-Phenylpiperidin-1-yl)cyclohexan-1-ol] the “anti-tubercular activity (in words)” value was “loss of activity” and the MIC (120 h) was > 20 µM.

In the case of `CC(C)(C)c1ccc(C2CCN(C3CCOCC3)CC2)cc1` [Molecule 4PP-24, 4-(4-(tert-Butyl)phenyl)-1-(tetrahydro-2H-pyran-4-yl)piperidine], the MIC (120 h) is reported as > 20 µM and the MIC is reported as > 20 µM.

With `CN1CCC(N2CCC(c3ccc(C(C)(C)C)cc3)CC2)CC1` [Molecule 4PP-25, 4-(4-(tert-Butyl)phenyl)-1'-methyl-1,4'-bipiperidine] the MIC (120 h) was > 20 µM and the MIC was > 20 µM.

`c1ccc(C2CCN(C3CCOCC3)CC2)cc1` [Molecule 4PP-26, 4-Phenyl-1-(tetrahydro-2H-pyran-4-yl)piperidine] was tested, and the MIC (120 h) was > 20 µM and the MIC was > 20 µM.

`CN1CCC(N2CCC(c3ccccc3)CC2)CC1` [Molecule 4PP-27, 1'-Methyl-4-phenyl-1,4'-bipiperidine] was tested, and the MIC (120 h) was > 20 µM and the MIC was > 20 µM.

In the case of `Brc1cccc(C2CCN(CC3CCCCC3)CC2)c1` [Molecule 4PP-28, 4-(3-Bromophenyl)-1-(cyclohexylmethyl)piperidine; 2,2,2-trifluoroacetic acid], the MIC (120 h) is reported as 2.8 ± 0.7 µM (≈ 0.942 µg/mL) and the MIC is reported as 2.8 µM (≈ 0.942 µg/mL).

In the case of `Clc1cccc(C2CCN(CC3CCCCC3)CC2)c1` [Molecule 4PP-29, 4-(3-Chlorophenyl)-1-(cyclohexylmethyl)piperidine; 2,2,2-trifluoroacetic acid], the MIC (120 h) is reported as 4.1 µM (≈ 1.2 µg/mL) and the MIC is reported as 4.1 µM (≈ 1.2 µg/mL).

In the case of `N#Cc1ccc(C2CCN(CC3CCCCC3)CC2)cc1.O=C(O)C(F)(F)F` [Molecule 4PP-30, 4-[1-(Cyclohexylmethyl)-4-piperidyl]benzonitrile; 2,2,2-trifluoroacetic acid], the “anti-tubercular activity (in words)” value is reported as “inactive” and the MIC (120 h) is reported as > 20 µM.
